{"source": "paper PMC3072031", "about": "(Analytical chemistry, 2010)", "key": {"detection conjugate": {"molecular_target": "detection conjugate", "assay_type": "binding", "details": "deduced from equation (1)"}, "Aβ(1–40) mAb": {"molecular_target": "Aβ(1–40) mAb", "details": "reported value; ref [41]; cited from earlier work"}}, "data": [{"substance": "Aβ(1–40): amyloid-β peptide, purchased from American Peptide Inc.; endogenous peptide in human CSF samples", "values": [{"measurement": "KD deduced from Langmuir isotherm, in words", "setting": "detection conjugate", "result": "nanomolar level"}, {"measurement": "KD between the Aβ(1–40) mAb and Aβ(1–40), in words", "setting": "Aβ(1–40) mAb", "result": "nanomolar level"}]}, {"substance": "Aβ(1–42): 42-residue-long amyloid-β peptide, purchased from American Peptide Inc.; endogenous peptide in human CSF samples", "values": [{"measurement": "KD deduced from Langmuir isotherm, in words", "setting": "detection conjugate", "result": "nanomolar level"}]}]}
